In PubChem BioAssay AID2252 (Southern Research Specialized Biocontainment Screening …, 2010):

The compounds below were run on THP-1 viability, CellTiter-Glo luminescence, 72 h (assay: PubChem AID 2252).

Question: For `CC12CN3CC(C)(CN(C1)C3c1ccc(Br)cc1O)C2` (stereo unspecified), which EC50 is on record?
Answer: < 0.1 µM

Question: For `Cn1c(SCC(=O)N/N=C/c2ccc([N+](=O)[O-])s2)nnc1-c1ccc(Cl)cc1`, which EC50 is on record?
Answer: 7.71 µM

Question: For `Nc1nonc1-n1nnc(C(=O)N/N=C/c2cc(Br)ccc2O)c1CSC1=NCCS1`, which EC50 is on record?
Answer: 1.29 µM

Question: How did the EC50 turn out when `O=C(N/N=C/c1ccc(O)c(O)c1)C1c2ccccc2Oc2ccccc21` was run?
Answer: 42 µM

Question: With `Cn1c(-c2ccc3c(c2)OCO3)cnc1NCc1ccc(Cl)cc1` as the compound, how does the EC50 read?
Answer: 28.8 µM

Question: Which EC50 does the source give for `CCCNC1=C(C)C(=O)C2=C(C1=O)C(COC(N)=O)[C@]1(OC)C3NC3CN21` (stereo partly specified) here?
Answer: 8.84 µM

Question: `N#C/C(=C\c1ccc(O)c(O)c1)C(=O)c1ccc(O)c(O)c1` was tested. Which EC50 did it give?
Answer: 39.1 µM

Question: For `C#CCOCCOCCOCCNc1nc(N2CCN(C(=O)CCCCCCCCCCNC(=O)[C@H](CCCCN)n3cc(C)nn3)CC2)nc(N2CCN(C(=O)CCCCCCCCCCNC(=O)[C@@H]([C@H](C)CC)n3cc(CCCCCN)nn3)CC2)n1`, which EC50 is on record?
Answer: 12.7 µM

Question: `Cc1ccc(C(C[N+](=O)[O-])c2c(N)n(C)c(=O)n(C)c2=O)cc1` (stereo unspecified) was tested. Which EC50 did it give?
Answer: 26.3 µM

Question: With `Cc1ccc(S(=O)(=O)NC(C)(C)CSc2nnc(N)s2)cc1` as the compound, how does the EC50 read?
Answer: < 0.1 µM

Question: For `CCCCn1c(NS(=O)(=O)c2ccccc2)c(C(=O)OCC)c2nc3ccccc3nc21`, which EC50 is on record?
Answer: 20.1 µM

Question: Which EC50 does the source give for `COc1ccc(C[C@H]2CN3C(=NC[C@H]3Cc3ccccc3)N2CCNC(=O)c2ccc(C)c(Br)c2)cc1` here?
Answer: 7.83 µM

Question: `CCCCCCCCCCCCCCCCn1cc[n+](C)c1` was tested. Which EC50 did it give?
Answer: 0.74 µM

Question: `CC(C)NC(=O)Nc1ccc(Br)cc1Cl` was tested. Which EC50 did it give?
Answer: < 0.1 µM

Question: For `CSc1ccc2c(c1)C(N1CCN(C)CC1)Cc1ccc(F)cc1S2` (stereo unspecified), which EC50 is on record?
Answer: 5.63 µM

Question: How did the EC50 turn out when `CCCCCCCCCCCCCCCC[n+]1cccc(C(=O)N(CC)CC)c1` was run?
Answer: 0.44 µM

Question: How did the EC50 turn out when `CCCCOc1ccc(CN=C(N)N)cc1Cl` was run?
Answer: 10.1 µM

Question: For `Cc1ccc(Nc2c3c(nc4ccccc24)CCC3)cc1`, which EC50 is on record?
Answer: 9.1 µM

Question: For `O=C(Nc1cccc(C2=NCCN2)c1)Nc1cccc(C2=NCCN2)c1`, which EC50 is on record?
Answer: 13.2 µM

Question: For `CNC(CC(=O)c1ccc([N+](=O)[O-])cc1)C(Cl)(Cl)Cl` (stereo unspecified), which EC50 is on record?
Answer: 9.95 µM

Question: How did the EC50 turn out when `Cc1ccccc1S(=O)(=O)NNC(=O)C(=O)NNc1ccccn1` was run?
Answer: 24.2 µM

Question: With `Nc1nonc1C(=O)NCCN=Cc1cc(Cc2ccccc2)cc(Br)c1O` as the compound, how does the EC50 read?
Answer: 28 µM

Question: `O=C(Cn1nc(CNc2ccc(Cl)cc2)[n+]2c1CCCCC2)c1ccc(Br)cc1` was tested. Which EC50 did it give?
Answer: 11.2 µM

Question: With `C#CCOCCOCCOCCNc1nc(N2CCN(C(=O)CCCCCCCCCCNC(=O)[C@H](CCCCN)n3cc(CCO)nn3)CC2)nc(N2CCN(C(=O)CCCCCCCCCCNC(=O)[C@H](CCCCN)n3cc(C[C@@H](C)CC)nn3)CC2)n1` as the compound, how does the EC50 read?
Answer: 12.9 µM

Question: `CC(=O)Nc1nc(C)c(-c2csc(Nc3ccc(O)cc3)n2)s1` was tested. Which EC50 did it give?
Answer: 4.01 µM

Question: `CC(Nc1nc(N2CCCCC2)nc2ccccc12)c1ccccc1` (stereo unspecified) was tested. Which EC50 did it give?
Answer: 7.12 µM

Question: Which EC50 does the source give for `O=C(Nc1nnc(C2COc3ccccc3O2)o1)c1ccc(F)cc1` (stereo unspecified) here?
Answer: 16.8 µM

Question: `C=CCN(c1ccccc1)S(=O)(=O)c1cccc2cccnc12` was tested. Which EC50 did it give?
Answer: 49.4 µM

Question: How did the EC50 turn out when `CN(Cc1ccccc1)CC(O)COc1ccc(CNCc2ccc(Cl)s2)cc1` (stereo unspecified) was run?
Answer: 22.2 µM

Question: For `Oc1ccccc1Nc1nc(NCc2ccco2)c2ccccc2n1`, which EC50 is on record?
Answer: 12.6 µM

Question: For `COc1ccc(C(=O)NC(=S)NNC(=O)c2cccc(C)c2)cc1`, which EC50 is on record?
Answer: 18.2 µM

Question: With `O=C(NCCCNc1ccnc2cc(Cl)ccc12)c1ccccc1F` as the compound, how does the EC50 read?
Answer: 21.2 µM

Question: With `Cc1ccc(OCC(=O)N/N=C\c2c(C)[nH]n(-c3ccccc3)c2=O)c([N+](=O)[O-])c1` as the compound, how does the EC50 read?
Answer: 6.86 µM

Question: How did the EC50 turn out when `O=C(c1ccccc1)c1c2c(cc3sc4ccccc4[n+]13)-c1cccc3cccc-2c13` was run?
Answer: 1.36 µM

Question: `CC(=O)NNC(=S)NC(=O)c1ccccc1` was tested. Which EC50 did it give?
Answer: 44.8 µM

Question: Which EC50 does the source give for `NC1=NC[C@H](c2ccccc2)N1CCCCC1CCCCC1` here?
Answer: 6.36 µM

Question: `Cc1ccc(CNCCC2=CCCCC2)cc1` was tested. Which EC50 did it give?
Answer: 26.7 µM

Question: With `COc1ccc(NC2=NC3(CCCCC3)N=C(N)N2)cc1` as the compound, how does the EC50 read?
Answer: 27 µM

Question: With `CC(C)(C)c1ccc(OCCNC(=S)Nc2ccccc2)cc1` as the compound, how does the EC50 read?
Answer: 16 µM

Question: Which EC50 does the source give for `CCCCOc1ccc(NC2=NC3(CCCCC3)N=C(N)N2)cc1` here?
Answer: 7.18 µM

Question: For `CC1CCC(C(C)C)C(OC(=O)Cn2c(COc3ccccc3)[n+](C)c3ccccc32)C1` (stereo unspecified), which EC50 is on record?
Answer: 2.37 µM

Question: With `CC(=O)Oc1ccccc1C(=O)Nc1ncc([N+](=O)[O-])s1` as the compound, how does the EC50 read?
Answer: 20.2 µM

Question: `CC[C@H](C)[C@@H](CN[C@H](C)CNC)NCCC(c1ccccc1)c1ccccc1` was tested. Which EC50 did it give?
Answer: 7.07 µM

Question: `O=C1c2ccccc2NC(c2ccc(-c3ccc(Br)cc3)o2)N1O` (stereo unspecified) was tested. Which EC50 did it give?
Answer: 10.6 µM

Question: For `Cc1[nH]nc2c1C(C1CC=CCC1)C(C#N)=C(N)O2` (stereo unspecified), which EC50 is on record?
Answer: 13.9 µM

Question: With `CN(C)CCCN1c2ccccc2Sc2ccc(C(F)(F)F)cc21` as the compound, how does the EC50 read?
Answer: 14.6 µM

Question: With `NC1=NC[C@H](Cc2ccc(O)cc2)N1CCC12CC3CC(CC(C3)C1)C2` as the compound, how does the EC50 read?
Answer: 13.2 µM

Question: Which EC50 does the source give for `Nc1nc(Nc2ccc(Cl)cc2)nc2ccccc12` here?
Answer: 6.06 µM

Question: With `CN(C)CCNC(=O)/C(=C/c1ccc(-c2ccc(Cl)cc2)o1)NC(=O)c1ccccc1` as the compound, how does the EC50 read?
Answer: 11.3 µM

Question: How did the EC50 turn out when `CCOC(=O)c1c(C)[nH]c(C(=O)CN2C(=O)NC(C)(c3ccc4ccccc4c3)C2=O)c1C` (stereo unspecified) was run?
Answer: 39.1 µM

Question: Which EC50 does the source give for `CCCCCCCNC(=O)C1(CC2CC(c3cccc(Br)c3)=NO2)CCNCC1` (stereo unspecified) here?
Answer: 7 µM

Question: `Cc1ccc(C(=O)NCCN2C3=NC[C@@H](Cc4ccccc4)N3C[C@H]2Cc2ccc(O)cc2)cc1Br` was tested. Which EC50 did it give?
Answer: 8.09 µM

Question: For `COc1ccc(Nc2cc(C)nc(NCc3ccccc3)n2)cc1`, which EC50 is on record?
Answer: 4.79 µM

Question: Which EC50 does the source give for `O=C(N/N=C/c1cc([N+](=O)[O-])ccc1O)C1CC1` here?
Answer: 27.7 µM

Question: Which EC50 does the source give for `COc1ccc(CNC(=O)CCC(=O)N2C[C@H]3C[C@H](C2)c2cccc(=O)n2C3)cc1` here?
Answer: < 0.1 µM

Question: For `CN1CCCN(C(c2ccccc2)c2ccc(Cl)cc2)CC1` (stereo unspecified), which EC50 is on record?
Answer: 8.99 µM
